Data taken from article PMC3814616, “BRAF inhibitors suppress apoptosis through off-target inhibition of JNK signaling” (eLife, 2013).

How the values were obtained:
TAOK2 = target: T1, TAOK2 (Homo sapiens, UniProt Q9UL54); set-up: method as in Bollag et al., 2010; conditions: ref Bollag et al., 2010; read-out: Published biochemical IC50; cited from earlier work
T1 construct: purchased KINOMEscan (DiscoveRx), San Diego, CA
T1 sequence (Q9UL54 1-1235): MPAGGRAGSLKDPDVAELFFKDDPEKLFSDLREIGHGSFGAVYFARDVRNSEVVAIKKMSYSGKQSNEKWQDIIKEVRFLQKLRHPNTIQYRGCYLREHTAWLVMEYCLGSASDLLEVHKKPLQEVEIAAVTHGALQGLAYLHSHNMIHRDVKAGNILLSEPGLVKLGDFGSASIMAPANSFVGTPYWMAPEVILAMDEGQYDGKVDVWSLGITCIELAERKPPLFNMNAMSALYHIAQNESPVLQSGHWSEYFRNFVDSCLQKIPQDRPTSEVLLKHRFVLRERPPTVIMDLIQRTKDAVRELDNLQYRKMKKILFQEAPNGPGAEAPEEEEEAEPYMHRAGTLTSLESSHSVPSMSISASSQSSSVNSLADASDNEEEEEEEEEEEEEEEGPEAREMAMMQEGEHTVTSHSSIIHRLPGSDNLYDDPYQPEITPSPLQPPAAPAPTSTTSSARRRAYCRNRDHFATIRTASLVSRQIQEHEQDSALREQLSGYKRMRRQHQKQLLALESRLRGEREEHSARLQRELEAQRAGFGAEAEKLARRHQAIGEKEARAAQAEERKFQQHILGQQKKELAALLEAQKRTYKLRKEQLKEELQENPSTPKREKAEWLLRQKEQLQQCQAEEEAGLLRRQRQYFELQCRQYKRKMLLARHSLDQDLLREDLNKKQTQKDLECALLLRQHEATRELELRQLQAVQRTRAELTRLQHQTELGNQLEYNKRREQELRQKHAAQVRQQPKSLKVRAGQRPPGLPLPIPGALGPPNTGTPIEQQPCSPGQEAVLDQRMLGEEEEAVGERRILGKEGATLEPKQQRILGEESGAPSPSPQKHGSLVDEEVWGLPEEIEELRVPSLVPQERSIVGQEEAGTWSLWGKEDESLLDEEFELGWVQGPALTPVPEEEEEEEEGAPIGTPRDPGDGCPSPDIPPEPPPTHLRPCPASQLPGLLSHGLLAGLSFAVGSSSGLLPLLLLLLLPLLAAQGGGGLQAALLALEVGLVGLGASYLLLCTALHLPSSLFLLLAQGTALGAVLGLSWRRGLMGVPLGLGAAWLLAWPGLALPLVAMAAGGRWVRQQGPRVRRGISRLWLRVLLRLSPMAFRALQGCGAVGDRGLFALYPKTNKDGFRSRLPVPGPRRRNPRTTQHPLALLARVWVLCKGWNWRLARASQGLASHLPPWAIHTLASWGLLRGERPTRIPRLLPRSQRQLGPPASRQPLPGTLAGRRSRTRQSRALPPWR

BRK (PTK6) = BRK (PTK6) (Homo sapiens, UniProt Q13882); conditions: ref Bollag et al., 2010; read-out: Published biochemical IC50; cited from earlier work
SRMS = SRMS (Homo sapiens, UniProt Q9H3Y6); set-up: method as in Bollag et al., 2010; conditions: ref Bollag et al., 2010; read-out: Published biochemical IC50; cited from earlier work
[1] = test system: epidermal keratinocytes of C57BL/6 mice; assay: Acute UVR-induced epidermal apoptosis in mouse skin; conditions: in vivo
Excerpt: (§1) Cutaneous squamous cell carcinomas biopsied from patients treated with or without BRAF-inhibitor were obtained either under clinical trials (Roche) or separate IRB approval (LAB08-0750). Staining levels were quantified by counting positively labeled cells and dividing by the total area of the tumor tissue within each sample. To measure tumor areas, all samples were photographed, tumor cells outlined, and total pixel numbers calculated using included image analysis tools in Adobe Photoshop and standardized to a hemacytometer to convert to mm^2. To measure apoptosis in irradiated skin, pyknotic or dyskeratotic epidermal keratinocytes were counted and normalized to length (mm) of epidermis.

phospho-JNK = assay: Immunohistochemistry of cSCC from Hairless mice; format: in vivo, mouse; conditions: p=0.046
Excerpt: (§2) We also used the Hairless mouse model of squamous cell carcinoma to assess whether PLX4720 would affect UV-driven tumor development. This is particularly relevant since it appears that UV exposure is an important initiating event in BRAFi-accelerated cSCC ([Su et al., 2012]). Unlike the DMBA/TPA model, in which lesions almost universally harbor Hras mutations ([Brown et al., 1990]), the Hairless model has a very low frequency of Ras mutation in papillomas and carcinomas ([van Kranen et al., 1995]), more similar to sporadic human cSCC. […]
(§3) Figure 5. […] (A and B) cDNA was reverse-transcribed from total RNA, PCR-amplified with the above primers (B) and analyzed by Sanger sequencing for mutations in both directions. No mutations in Hras, Kras, or Nras were detected in any of the papillomas (n = 5) or carcinomas (n = 3) isolated from PLX4720-treated mice. […]
as §1, with “To measure apoptosis in irradiated skin, pyknotic or dyskeratotic epidermal keratinocytes were counted and normalized to length (mm) of epidermis.” left out

cleaved caspase 3 = assay: Immunohistochemistry of cSCC from Hairless mice; format: in vivo, mouse; conditions: p=0.019
Excerpt: as §2, §3
as §1, with “To measure apoptosis in irradiated skin, pyknotic or dyskeratotic epidermal keratinocytes were counted and normalized to length (mm) of epidermis.” left out

NHEK cells = assay: UV-induced apoptosis, FACS Annexin V+, TMRE-low; format: cell-based, human; conditions: 1 kJ/m^2 UVB, 1 μM, 24 hr, vs DMSO
SRB1 cells = assay: UV-induced apoptosis, FACS Annexin V+, TMRE-low; format: cell-based, human; conditions: 1 kJ/m^2 UVB, 1 μM, 24 hr, vs DMSO
[2] = test system: E1A and HRAS^G12V-transformed Craf−/− MEFs; assay: Soft agar colony formation; format: cell-based, mouse; conditions: 0.2 μM and 1.0 μM, 4–6 weeks
[3] = test system: ZAK (T82Q)-expressing HaCaT cells; assay: UV-induced apoptosis in HaCaT cells overexpressing ZAK (WT) or gatekeeper mutant ZAK (T82Q); conditions: 1 μM, UVB 720 J/m^2, 24 hr
COLO16 cells = assay: UV-induced apoptosis, FACS Annexin V+, TMRE-low; format: cell-based, human; conditions: 1 kJ/m^2 UVB, 1 μM, 24 hr, vs DMSO

Chain of BRK (PTK6) (Q13882 whole entry): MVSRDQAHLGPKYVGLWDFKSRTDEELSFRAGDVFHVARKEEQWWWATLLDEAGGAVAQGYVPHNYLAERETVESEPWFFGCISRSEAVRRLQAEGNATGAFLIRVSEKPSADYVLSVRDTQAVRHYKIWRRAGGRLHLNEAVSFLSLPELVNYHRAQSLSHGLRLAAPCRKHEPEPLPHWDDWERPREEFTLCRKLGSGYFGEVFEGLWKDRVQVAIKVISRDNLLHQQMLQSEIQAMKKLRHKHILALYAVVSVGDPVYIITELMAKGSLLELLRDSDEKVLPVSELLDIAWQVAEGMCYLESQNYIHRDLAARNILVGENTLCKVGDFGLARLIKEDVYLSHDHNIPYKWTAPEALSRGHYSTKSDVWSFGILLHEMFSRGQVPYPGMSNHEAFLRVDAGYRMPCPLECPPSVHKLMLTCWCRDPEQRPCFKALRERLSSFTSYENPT
Chain of SRMS (Q9H3Y6 whole entry): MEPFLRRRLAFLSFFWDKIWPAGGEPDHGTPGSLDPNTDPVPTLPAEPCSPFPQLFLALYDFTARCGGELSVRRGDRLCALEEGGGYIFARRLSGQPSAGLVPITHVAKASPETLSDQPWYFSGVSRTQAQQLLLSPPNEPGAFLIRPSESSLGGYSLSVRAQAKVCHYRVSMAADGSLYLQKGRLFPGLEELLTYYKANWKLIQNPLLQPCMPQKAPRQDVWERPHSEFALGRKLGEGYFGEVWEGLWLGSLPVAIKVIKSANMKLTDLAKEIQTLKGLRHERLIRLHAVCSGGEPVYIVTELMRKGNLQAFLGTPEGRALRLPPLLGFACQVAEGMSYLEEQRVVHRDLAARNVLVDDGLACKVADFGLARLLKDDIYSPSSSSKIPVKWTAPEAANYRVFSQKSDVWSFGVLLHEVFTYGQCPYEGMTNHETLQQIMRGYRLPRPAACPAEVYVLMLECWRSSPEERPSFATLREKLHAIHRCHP

| SMILES | IC50 (TAOK2) | IC50 (BRK (PTK6)) | IC50 (SRMS) | apoptotic epidermal keratinocytes in irradiated skin [1] | phospho-JNK expression in tumors vs control-treated mice (phospho-JNK) | cleaved caspase 3 expression in tumors vs control-treated mice (cleaved caspase 3) | suppression of UV-induced apoptosis (NHEK cells) | suppression of UV-induced apoptosis (SRB1 cells) | colony formation [2] | apoptosis of drug-treated ZAK (T82Q)-expressing cells as share of the levels in untreated cells [3] | suppression of UV-induced apoptosis (COLO16 cells) |
| --- | --- | --- | --- | --- | --- | --- | --- | --- | --- | --- | --- |
| CCCS(=O)(=O)Nc1ccc(F)c(C(=O)c2c[nH]c3ncc(-c4ccc(Cl)cc4)cc23)c1F [vemurafenib] | > 1 µM | 0.213 µM | 0.018 µM |  |  |  |  |  |  |  |  |
| CCCS(=O)(=O)Nc1ccc(F)c(C(=O)c2c[nH]c3ncc(Cl)cc23)c1F [PLX4720] |  |  |  | 4.9 ± 0.3 apoptotic cells/mm skin | significant decreases | significant decreases | at least 70% | at least 70% | significant colony formation advantage | 76.9% | at least 70% |
